From a melting point compilation (Tetko et al.; mined from patent text by program, amines drawn as free bases though some values may be those of a salt)

Row | melting point | Structure (SMILES)
1 | 198 to 200 °C | O=C(O)CN(CCc1ccccc1)C(=O)[C@@H]1C[C@@H](S)CN1S(=O)(=O)c1ccc2ccccc2c1
2 | 226 to 227 °C | O=C(O)c1ccc(F)c(Oc2ccccc2)c1
3 | 118 to 122 °C | COc1ccccc1[C@H](c1cccc2ccccc12)[C@@](C)(C#N)C(=O)N1CC=C(c2ccc(Cl)cc2)CC1
4 | 290 to 294 °C | O=C1CN(N=Cc2ncc(-c3ccc(Cl)cc3)o2)C(=O)N1
5 | 167 to 168 °C | COc1c(OCc2ccccc2)ccc(C(=O)O)c1N
6 | 136 to 138 °C | O=C(NCCN(C1CC1)S(=O)(=O)c1ccccc1[N+](=O)[O-])N1CCN2C(=O)OC(c3ccccc3)(c3ccccc3)C2C1 (configuration not stated)
7 | 228 to 230 °C | Cc1csc(NC(=O)C2=C(O)c3ccccc3N(c3ccccc3)C2)n1
8 | 134 to 137 °C | CC(C)(O)C(=O)Nc1ccc2oc3ccccc3c2c1
9 | 121 to 123 °C | COc1ccc(Cl)cc1C(O)C(N)=O (configuration not stated)
10 | 37.5 to 38.5 °C | O=C(Oc1cccc(F)c1)c1ccccc1F
11 | 140 °C | O=C(Nc1cccc2[nH]ccc12)c1ccccc1OCCCCl
12 | 86 to 88 °C | CCOC(=O)c1cc2c(OC)cc3c(c2n1Cc1ccccc1)CCCC3
13 | 120 to 121 °C | Cc1c(-c2ccc(C(=O)c3ccc(-c4sc5ccccc5c4C)nc3)cn2)sc2ccccc12
14 | 301 °C | Cc1cc(-c2ccc(Cl)cc2)cn2c(-c3nc(-c4cccc(S(N)(=O)=O)c4)no3)cnc12
15 | 224 °C | Cc1cc(Nc2ccnc(Nc3ccc(S(=O)(=O)N(C)C4CCN(Cc5cn[nH]c5)CC4)cc3)n2)ccc1F
16 | 38 to 42 °C | COc1c2c(c(OC)c(OC)c1OC)CC(CCCCCCCCOc1ccc(Cl)cc1)C2
17 | 150 to 153 °C | CCN1c2ccc(C)cc2C2CN(CCCC(=O)c3ccc(F)cc3)CCC21 (configuration not stated)
18 | 211 to 213 °C | O=c1[nH]c2ccccc2c(=O)n1S(=O)(=O)c1ccccc1
19 | 224 to 226 °C | O=C1CCC(N2Cc3c(OCc4ccc(CN5CCN(c6ccccn6)C(=O)C5)cc4)cccc3C2=O)C(=O)N1 (configuration not stated)
20 | 227 to 231 °C | Cn1c(COc2ccc(CC3SC(=O)NC3=O)cc2)nc2ccc(Oc3cccc(NC(=O)NC45CC6CC(CC(C6)C4)C5)c3)cc21 (configuration not stated)
21 | 97 to 100 °C | CON=C(C1=NCCO1)c1ccccc1OCc1ccc(Cl)cc1
22 | 242 °C | C[C@@H](n1ncn(-c2ccc(O)cc2)c1=O)[C@](O)(Cn1cncn1)c1ccc(F)cc1F
23 | 200 to 202 °C | O=C(Nc1ccccc1)Nc1ccc(F)c([N+](=O)[O-])c1
24 | 190 to 195 °C | Cc1ccc(C(=O)n2c3c(c4ccccc42)CC(C(=O)O)(C(=O)O)CC3)cc1

Row | melting point | Structure (SMILES)
25 | 122 °C | CC(C)(Sc1nnnn1-c1ccccc1)c1ccc([N+](=O)[O-])cc1
26 | 116 to 118 °C | N=C(Nc1ccc(CCNCc2ccccc2)cc1)c1cccs1
27 | 160 °C | CN(Cc1cccc(-c2ccc(CC3SC(=O)NC3=O)cc2)c1)C(=O)c1cccs1 (configuration not stated)
28 | 106 to 108 °C | COc1ccccc1C(=O)Nc1ccc(COc2ccc3c(c2)CCC(CN(C)C)C3)cc1 (configuration not stated)
29 | 172 to 175 °C | CSC(=NC(=O)c1ccccc1)N1CC=C(c2cccc(C(F)(F)F)c2)n2ncc(C(N)=O)c21
30 | 191 to 193 °C | CN(Cc1ccccc1)CC1CNC(=O)c2cccc3[nH]cc1c23 (configuration not stated)
31 | 110 to 112 °C | CC(C)c1nc2ccccc2n1CCCCCSc1nc(-c2ccc(N(C)C)cc2)c(-c2ccc(N(C)C)cc2)[nH]1
32 | 189 to 190 °C | CCn1ncc2nc(C(N)=O)c(-c3ccccc3)nc21
33 | 220 °C | O=C(Nc1ccccc1Sc1ccccc1)N[C@@H](Cc1ccc(NC(=O)c2c(Cl)cccc2Cl)cc1)C(=O)O
34 | 223 to 224 °C | CC(=O)c1cc(C(C)=O)cc(N(C(C)=O)C(=O)Nc2ccccc2)c1
35 | 157 to 158 °C | NC(=NO)c1ccc(-c2ccc(O)cc2)o1
36 | 257 to 261 °C | CC1NC(=O)NN=C1c1ccccc1O (configuration not stated)
37 | 78 to 79 °C | Nc1ccc(OCCCCCOc2ccc(N)cc2)cc1
38 | 128 to 129 °C | O=C(Cn1ccnc1)c1cccc(-c2ccccc2)c1
39 | 80 °C | NC(CSc1ccccc1N)=NO
40 | 70 °C | CCOC(=O)c1cn(C(C)CSc2ccccc2)c2nc(F)c(Cl)cc2c1=O (configuration not stated)
41 | 62 to 65 °C | Cc1ccc(C)c(OCc2ccccc2C(Cl)Cl)c1
42 | 210 to 211 °C | CC(C)OC(=O)Nc1ccc2nc(-c3ccccc3)oc2n1
43 | 143 to 149 °C | CN(CC(=O)Nc1cccc(-c2cc(-c3ccccc3O)nc(NC(=O)c3cccs3)c2C#N)c1)C(=O)OC(C)(C)C
44 | 194 to 196 °C | CC(C)(C)C1(O)CCN(CC23CC(c4ccc(Cl)cc42)c2ccc(Cl)cc23)CC1
45 | 138 to 139 °C | CC(=O)C1=C(C)NC(C)=C(c2nc(CN(C)Cc3ccccc3)no2)C1c1cccc([N+](=O)[O-])c1 (configuration not stated)
46 | 77 to 79 °C | Oc1cccc(F)c1OC(COCc1ccccc1)C(Cl)COCc1ccccc1 (configuration not stated)
47 | 234 to 236 °C | c1ccc(Nc2ncnc3[nH]ccc23)cc1
48 | 183 to 184 °C | Clc1ccc(N=c2ccn3ccccc3c2)cc1

Continued, compound first:

Row | Structure (SMILES) | melting point
49 | CCCCc1nc(Cl)c(CC(=O)OCC)c(Cc2ccc(C(=O)OC)cc2)n1 | 78 °C
50 | O=C1c2c(Cl)cccc2-n2cnc(CO)c2C2CCCN12 (configuration not stated) | 303 to 305 °C
51 | CCCn1cnc2c1c(=O)n(CCCC(C)(O)C#CCN1CCN(C)CC1)c(=O)n2C (configuration not stated) | 168 °C
52 | CCOC(=O)C1CCc2ccc(OC)cc2C1 (configuration not stated) | 125 to 127 °C
53 | Oc1cc2[nH]c3cc(O)c(O)cc3c2cc1O | > 300 °C
54 | C=CS(=O)(=O)CC(=O)N1CCN(C(=O)CS(=O)(=O)C=C)CC1 | 215 °C
55 | Cc1oc(-c2ccccc2)nc1COc1ccc(CCCc2nnn[nH]2)cn1 | 137 to 138 °C
56 | CCCCCn1c2ccc(C(=O)O)cc2c2ccc(SC)cc21 | 211 to 212 °C
57 | NNC(=O)c1ccc(N2CCNC2=O)cc1 | > 200 °C
58 | CS(=O)(=O)N[C@@H](CCCCN)C(=O)NC[C@H](CC1(C(=O)N[C@@H](Cc2ccc(O)cc2)C(=O)O)CCCC1)C(=O)O | 237 to 238 °C
59 | COc1cc(OC)c2c(=O)[nH]c(-c3ccc(OC)c(-c4ccc(C(=O)N(C)C)cc4Cl)n3)nc2c1 | 271 to 272 °C
60 | CCCCCCCCN(SN(C(=O)NC(=O)c1ccccc1[N+](=O)[O-])c1ccc(Oc2ncc(Br)cn2)c(Cl)c1)C(=O)OC | 51 to 54 °C
61 | CC(=O)OCc1c(Br)cccc1N1CCc2c(cc3n2CCCC3)C1=O | 176 to 178 °C
62 | CCOC(=O)N1CCC(=C2c3ccc(F)cc3CCc3cccnc32)CC1 | 116 to 118 °C
63 | CCN(CC)CCNC(=O)c1cc(Cl)c(N)cc1OCCC(C)O (configuration not stated) | 136 to 138 °C
64 | CC(=O)OCC(OC(C)=O)c1nc2c(C(F)(F)F)cccc2c(O)c1C(=O)Nc1nccs1 (configuration not stated) | 270 °C
65 | c1ccc2c(c1)OP(N(C1CCCCC1)C1CCCCC1)c1ccccc1-2 (configuration not stated) | 162 °C
66 | Nc1nc(NC2CC2)c2ncn(/C=C3/CC3(CO)CO)c2n1 | 164 to 165 °C
67 | CCC1SC(=O)NN=C1c1ccc(OC(F)F)c(OC)c1 (configuration not stated) | 97 °C
68 | CSc1ncnc2c1ncn2COC(COC(C)=O)COC(C)=O | 191 to 193 °C
69 | CCOC(=O)Nc1ccc2oc(CCC(F)(F)F)cc2c1 | 108 °C
70 | CCC(CC)C(=O)C1=C(O)c2cc(OC)c(OC)c(OC)c2C(O)(c2ccc(OC)c(OC)c2)C1C(=O)OC (configuration not stated) | 156 to 157 °C
71 | COC(=O)NCCc1cccc(-c2ccnc3c(C#N)cnn23)c1 | 162 to 164 °C
72 | COC(=O)C(C(=O)OC)C(Cc1cc(C(F)(F)F)ccc1[N+](=O)[O-])c1ccc(OC)cc1 (configuration not stated) | 110 to 112 °C
73 | CC(=O)c1ccc(OCCCCl)c(C)c1 | 41.5 to 42.5 °C

Row | Structure (SMILES) | melting point
74 | CNC(=C[N+](=O)[O-])NCC(O)COc1cccc(CN2CCCCC2)c1 (configuration not stated) | 45 to 50 °C
75 | CCOC(=O)Cn1cnc(-c2cc(OC)c(OC)c(OC)c2)c1-c1ccc(C(F)(F)F)cc1 | 129 to 134 °C
76 | CC(C)(C)OC(=O)Nc1cc(N2CCS(=O)(=O)CC2)c(C#Cc2ccccc2)cc1[N+](=O)[O-] | 217 to 221 °C
77 | CC(C)(C)Nc1c(NCc2cccc(OC(F)(F)F)c2)c(=O)c1=O | 210 to 212 °C
78 | COc1cc(C(=O)c2c[nH]c(-c3ccc(C)cc3)n2)cc(OC)c1OC | 201 to 203 °C
79 | CN(C)C1=NS(=O)(=O)c2ccccc21 | 323 to 324 °C
80 | CC(=O)Nc1cc(-n2c(=O)cc(C(F)(F)F)[nH]c2=O)c(F)cc1Cl | 264 to 266 °C
81 | CS(=O)(=O)c1ccc(-c2nn3c4c(oc3c2-c2ccc(F)cc2)COCC4)cc1 | 200 to 201 °C
82 | FC(F)(F)c1cc(Cl)c2cc(Cl)cc(Cl)c2n1 | 74 to 76 °C
83 | CCNC(=O)Nc1cnc2ccc(-c3ccc(N)c(OC)c3)nc2n1 | > 310 °C
84 | C=CCCCCCCCCOc1ccc(O)cc1 | 54 to 55 °C
85 | CC1(C)NC(=O)N(c2cc(C#N)c(C#N)c(C(F)(F)F)c2)C1=O | 159 to 160 °C
86 | CC(C)(C)OC(=O)N1CCC(C#N)(c2ccccc2Cl)CC1 | 165 to 166 °C
87 | CCCCSc1ccc(C2CC(=O)C(C(=O)CC)=C(O)C2)cc1[N+](=O)[O-] (configuration not stated) | 102 °C
88 | Nc1nc2ccccc2c2c1nc(CCO)n2CC1(O)CCC1 | 132 to 137 °C
89 | CCCCCCCCCCOc1ccc(Cc2cnc(N)nc2N)cc1OC | 169 °C
90 | CC(=O)OCC1OC(O)(c2ccc(Cl)cc2)C(OC(C)=O)C(OC(C)=O)C1OC(C)=O (configuration not stated) | 124 °C
91 | CC(C)(C)OC(=O)[C@H]1CCCN1S(=O)(=O)c1ccc2c(Br)cnc(Cl)c2c1 | 128 to 130 °C
92 | C=Cc1c(N)nc(-c2ccc(Cl)c(OC)c2F)nc1C(=O)O | 167 to 168 °C
93 | O=C(O)C(CCO)N1CCCC1=O (configuration not stated) | 123 to 124 °C
94 | CCOC(=O)C(=O)Nc1cccc(C#N)c1 | 149 to 150 °C
95 | CCC(=O)NS(=O)(=O)c1cccc(-c2cc(-c3nc(-c4ccc(C(F)(F)F)cc4)cc(C(F)(F)F)n3)ccn2)c1 | 144 °C
96 | COCCOc1ccc(CCCOC(=O)NS(N)(=O)=O)c(Oc2ncc(Cl)cc2Cl)c1 | 153 to 154 °C
97 | CCOC(=O)C(Cc1ccccc1)=NO | 54 to 55 °C
